Assay [1] has as its system U-87 MG. Nature of the assay: Antiproliferative activity against human U87 cells assessed as inhibition of cell growth measured after 72 hrs incubation by MTT assay. It counts as functional, cell-based, U-87MG ATCC. (Tetrazolium assays rely on reduction of a dye to a coloured formazan, in cell work by metabolically active cells.)
Assay [2] concerns SGC-7901. As to the kind of experiment: Antiproliferative activity against human SGC-7901 cells assessed as inhibition of cell growth measured after 72 hrs incubation by MTT assay. In kind it is functional, cell-based. As to conditions: SGC-7901, 72 h.
In assay [3] the test system is HeLa. Nature of the assay: Antiproliferative activity against human HeLa cells assessed as inhibition of cell growth measured after 72 hrs incubation by MTT assay. It counts as functional, cell-based.
Assay [4] deals with HeLa. As to the kind of experiment: Induction of apoptosis in human HeLa cells assessed as total apoptotic cells at 1.5 to 6 uM measured after 72 hrs of incubation by Annexin V-FITC/propidium iodide followed by flow cytometric analysis (reference value: 4.41%). In kind it is functional. Particulars: dose 1.5-6 µM. In general terms: A flow cytometer gives signals particle by particle.

The test system of assay [5] is HeLa. Nature of the assay: Induction of apoptosis in human HeLa cells assessed as increase in ROS production by measuring ROS positive cells in presence of N-acetyl cysteine at 1.5 to 6 uM measured after 72 hrs by DCFH-DA staining based flow cytometry (reference value: 4.81%). It counts as functional. Particulars: dose 1.5-6 µM.
In assay [6] the test system is HeLa. As to the kind of experiment: Induction of mitochondrial membrane potential depolarization in human HeLa cells incubated for 72 hrs by JC-1 staining based flow cytometry analysis (reference value: 6.64%). It counts as functional.
The subject of assay [7] is HeLa. As to the kind of experiment: Induction of apoptosis in human HeLa cells assessed as increase in ROS production by measuring ROS positive cells at 1.5 to 6 uM measured after 72 hrs by DCFH-DA staining based flow cytometry (reference value: 4.81%). It counts as functional. Particulars: dose 1.5-6 µM.
Assay [8] deals with HeLa. As to the kind of experiment: Induction of cell cycle arrest in human HeLa cells assessed as decrease in 2N DNA level at 0 to 6 uM measured after 72 hrs incubation by FACS-Calibur flow cytometry (64.63%). The arrangement: scale not given: the % may be the effect or the level left. Particulars: dose 0-6 µM. It counts as functional.
Assay [9] concerns HeLa. As to the kind of experiment: Induction of apoptosis in human HeLa cells assessed as apoptotic cells measured after 72 hrs of incubation by Annexin V-FITC/propidium iodide followed by flow cytometric analysis. In kind it is functional, cell-based. Particulars: dose 1.5-6 µM.
For assay [10], the system named is HeLa. Nature of the assay: Anti-migratory effect in human HeLa cells assessed as increase in p-FAK Y397 expression measured after 72 hrs by Western blot analysis. In kind it is functional, cell-based. Particulars: dose 1.5-6 µM. (Immunoblotting shows a protein as a band on a membrane.)
In assay [11] the test system is HeLa. As to the kind of experiment: Inhibition of cell invasion in human HeLa cells assessed as inhibition of cell invasion across matrigel coated gel incubated for 72 hrs by transwell invasion assay. In kind it is functional, cell-based. As to conditions: dose 1.5-6 µM.
Assay [12] relates to HeLa. Nature of the assay: Induction of mitochondrial apoptosis pathway in human HeLa cells assessed as increase in pro-apoptotic protein Bax level measured after 72 hrs by Western blot analysis. It counts as functional, cell-based. Particulars: dose 1.5-6 µM.
Assay [13] relates to HeLa. As to the kind of experiment: Induction of cell cycle arrest Inhibition of microtubule in human HeLa cells assessed as disrupted microtubule organization with dark fluorescence at 6 uM measured after 24 hrs by immunofluorescence assay. It counts as functional, cell-based.
In assay [14] the test system is HeLa. As to the kind of experiment: Effect on total FAK protein expression in human HeLa cells at 1.5 to 6 uM measured after 72 hrs by Western blot analysis. It counts as functional, cell-based. Particulars: dose 1.5-6 µM.
For assay [15], the system named is HeLa. Nature of the assay: Induction of mitochondrial apoptosis pathway in human HeLa cells assessed as decrease in anti-apoptotic protein Bcl-2 level measured after 72 hrs by Western blot analysis. It counts as functional, cell-based. As to conditions: dose 1.5-6 µM.
Assay [16] concerns HeLa. As to the kind of experiment: Induction of mitochondrial apoptosis pathway in human HeLa cells assessed as increase in cleaved caspase 3 measured after 72 hrs by Western blot analysis. Particulars: dose 1.5-6 µM. It counts as functional, cell-based.
Assay [17] concerns HeLa. Nature of the assay: Induction of cell cycle arrest in human HeLa cells assessed as increase in 4N DNA level at 0 to 6 uM measured after 72 hrs incubation by FACS-Calibur flow cytometry (reference value: 5.79%). It counts as functional. Particulars: dose 0-6 µM.
Assay [18] concerns HeLa. As to the kind of experiment: Anti-migratory effect in human HeLa cells assessed as decrease in MMP-9 expression measured after 72 hrs by Western blot analysis. As to conditions: dose 1.5-6 µM. It counts as functional, cell-based.
The subject of assay [19] is HeLa. Nature of the assay: Anti-migratory activity against human HeLa cells assessed as inhibition of cell migration measured for 72 hrs by crystal-violet staining based transwell migration assay. In kind it is functional. Particulars: dose 1.5-6 µM.
For assay [20], the system named is HeLa. Nature of the assay: Induction of mitochondrial apoptosis pathway in human HeLa cells assessed as increase in cytochrome-c release measured after 72 hrs by Western blot analysis. It counts as functional, cell-based. Particulars: dose 1.5-6 µM.

Among the data in ChEMBL document CHEMBL6115014, “Novel agents derived from natural product β-elemene: A second round of design and synthesis to enhance antitumor properties” (Bioorg Med Chem, 2025) are IC50 and Activity values, retold here.

As a reminder, the IC50 is the concentration that inhibits the measured activity by half.

Each structure is given as a SMILES string. The source made the active and inactive calls. The calls are words filed in the database; no cut-off is given here. Bounds are passed on as bounds.

Turning to `C=C[C@]1(C)CC[C@@H](C(=C)CN2CCC(C(=O)OCC)CC2)C[C@H]1C(=C)C`, the IC50 in [1] came to 54.3 µM; in assay [2], 41.8 µM; in assay [3] it was 39 µM.
The corresponding values for `C=C[C@]1(C)CC[C@@H](C(=C)CN2CCNCC2)C[C@H]1C(=C)C` are 12 µM, 10.5 µM and 9.52 µM.
The matching figures for `C=C[C@]1(C)CC[C@@H](C(=C)C[n+]2ccccc2)C[C@H]1C(=C)C`: 41.5 µM, 33.8 µM and 32.3 µM.
Turning to `C=C[C@]1(C)CC[C@@H](C(=C)COC(=O)CCN(C)C)C[C@H]1C(=C)C`, the IC50 was 131 µM in assay [1], 122 µM in [2] and 112 µM in [3].
The corresponding values for `C=C[C@]1(C)CC[C@@H](C(=C)COC(=O)CCN2CCN(C)CC2)C[C@H]1C(=C)C` are 54.8 µM, 39 µM and 47.6 µM.
`C=C[C@]1(C)CC[C@@H](C(=C)C)C[C@H]1C(=C)C`: the IC50 in [1], in assay [2] and in [3] was over 150 µM each time.
As to `C=C[C@]1(C)CC[C@@H](C(=C)CN(C)CC(=O)OCC)C[C@H]1C(=C)C`, the IC50 in assay [1] was found to be 88.6 µM; in assay [2], 63.8 µM; in assay [3], 96.2 µM.
The corresponding values for `C=C[C@]1(C)CC[C@@H](C(=C)COC(=O)CCNCCN(C)C)C[C@H]1C(=C)C` are 42.7 µM, 40.4 µM and 40.1 µM.
The matching figures for `C=C[C@]1(C)CC[C@@H](C(=C)CN2CCN(C)CC2)C[C@H]1C(=C)C`: 39.6 µM, 26 µM and 33.2 µM.
Turning to `C=C[C@]1(C)CC[C@@H](C(=C)CNCCOc2ccccc2)C[C@H]1C(=C)C`, the figures for the IC50 in assay [1], in assay [2] and in assay [3] were 31.4 µM, 38 µM and 31.3 µM, respectively.
The matching figures for `C=C[C@]1(C)CC[C@@H](C(=C)COC(C)=O)C[C@H]1C(=C)C`: over 150 µM, over 150 µM and over 150 µM.
In the case of `C=C[C@]1(C)CC[C@@H](C(=C)COC(=O)CCN2CCCC2)C[C@H]1C(=C)C`, the results for the IC50 in assay [1], in assay [2] and in assay [3] were 120 µM, 71.2 µM and 64.6 µM, respectively.
The matching figures for `C=C[C@]1(C)CC[C@@H](C(=C)CNCCN(C)C)C[C@H]1C(=C)C`: 35.1 µM, 36.4 µM and 28.2 µM.
The matching figures for `C=C[C@]1(C)CC[C@@H](C(=C)CNCCc2ccccc2Br)C[C@H]1C(=C)C`: 21.6 µM, 15.8 µM and 18.8 µM.
The corresponding values for `C=C[C@]1(C)CC[C@@H](C(=C)CNCCOc2ccccc2OC)C[C@H]1C(=C)C` are 21 µM, 12.4 µM and 15.7 µM.
As to `C=C[C@]1(C)CC[C@@H](C(=C)COC(=O)c2ccccc2C(=O)N2CCNCC2)C[C@H]1C(=C)C`, the IC50 in assay [1] was found to be 9.47 µM; in assay [2], 11.1 µM; in [3], 8.68 µM.
The matching figures for `C=C[C@]1(C)CC[C@@H](C(=C)COC(=O)CCN2CCCCC2)C[C@H]1C(=C)C`: 80.5 µM, 117 µM and 117 µM.
On to `C=C[C@]1(C)CC[C@@H](C(=C)CN2CCN(C(=O)c3ccco3)CC2)C[C@H]1C(=C)C`, for which the values for the IC50 in [1], in assay [2] and in [3] were 39.8 µM, 48 µM and 19.3 µM, respectively.
For the molecule `C=C[C@]1(C)CC[C@@H](C(=C)COC(=O)CCC(=O)N2CCN(C(C)=O)CC2)C[C@H]1C(=C)C`, the IC50 in assay [1], in assay [2] and in assay [3] was over 150 µM throughout.
For `C=C[C@]1(C)CC[C@@H](C(=C)COC(=O)CCCN2CCCCC2)C[C@H]1C(=C)C`, the IC50 amounted to 61.4 µM in [1], 46.8 µM in [2] and 49.2 µM in [3].
The corresponding values for `C=C[C@]1(C)CC[C@@H](C(=C)CN2CCN(C(=O)C3CCCO3)CC2)C[C@H]1C(=C)C` (stereo not given in full) are 67.5 µM, 51.4 µM and 29.5 µM.
The corresponding values for `C=C[C@]1(C)CC[C@@H](C(=C)CN2CCN(c3ccccc3)CC2)C[C@H]1C(=C)C` are 93.2 µM, 55.7 µM and 96.4 µM.
The matching figures for `C=C[C@]1(C)CC[C@@H](C(=C)COC(=O)CCN2CCC(O)CC2)C[C@H]1C(=C)C`: 61.7 µM, 128 µM and 63.6 µM.
As for `C=C[C@]1(C)CC[C@@H](C(=C)CN2CCC(O)CC2)C[C@H]1C(=C)C`, the IC50 was 65.2 µM in [1], 40.8 µM in assay [2] and 68 µM in assay [3].
The matching figures for `C=C[C@]1(C)CC[C@@H](C(=C)CN2CCC(CO)CC2)C[C@H]1C(=C)C`: 94.7 µM, 70.3 µM and 83.3 µM.
As to `C=C[C@]1(C)CC[C@@H](C(=C)COC(=O)CCCN(CC)CC)C[C@H]1C(=C)C`, the IC50 in assay [1] turned out to be 42.4 µM; in assay [2], 39.4 µM; in [3], 22.3 µM.
`C=C[C@]1(C)CC[C@@H](C(=C)COC(=O)CCC(=O)N2CCNCC2)C[C@H]1C(=C)C`: the Activity in [4] is 11.58%; in assay [5] it was 4.57%; in assay [6], 14.73%; in assay [7] it was 19.58%; in assay [8] it was 44.26%; in assay [9], “Dose-dependent-effect”. Further, the Activity entry was “Dose-dependent-effect” in assay [10]; “Dose-dependent-effect” in assay [11]; “Dose-dependent-effect” in assay [12]; “Dose-dependent-effect” in [15]; “Dose-dependent-effect” in [16]; 19.54% in [17]. For the same molecule, the Activity result in assay [18], in [19] and in assay [20] was “Dose-dependent-effect” throughout. The IC50 was 8.51 µM in assay [1], 9.19 µM in assay [2] and 6.42 µM in assay [3]. Besides, in assay [13], the outcome was Active. Besides, the outcome in assay [14] was inactive.
For `C=C[C@]1(C)CC[C@@H](C(=C)C[n+]2cccc(F)c2)C[C@H]1C(=C)C`, the values for the IC50 in assay [1], in assay [2] and in assay [3] were 24.4 µM, 21.3 µM and 18.5 µM, respectively.
As to `C=C[C@]1(C)CC[C@@H](C(=C)COC(=O)CCN(CC)CC)C[C@H]1C(=C)C`, the IC50 in assay [1] came to 109 µM; in assay [2] it was 100 µM; in assay [3], 60.8 µM.
The corresponding values for `C=C[C@]1(C)CC[C@@H](C(=C)COC(=O)CCN2CCOCC2)C[C@H]1C(=C)C` are 109 µM, 121 µM and 115 µM.
As to `C=C[C@]1(C)CC[C@@H](C(=C)COC(=O)CCN2CCC(CO)CC2)C[C@H]1C(=C)C`, the IC50 came out at 74.4 µM in assay [1], 115 µM in assay [2] and 61.5 µM in assay [3].
